Data published in ChEMBL document CHEMBL1201862, “PubChem BioAssay data set” (2004).
“And” between values parts separate entries of the source, which are not always exact repeats. Equal entries are not always repeated.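 Five compound concentrations were applied to cells in 96-well plates for 48 hours; endpoints were derived by simple linear interpolation of the resulting dose-response curve. Abbreviation: GI50, concentration required for 50% inhibition of growth.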 The source made the active and inactive calls. Rule as the data show it: active = GI50 up to about 1.1 µM and inactive = higher.

Columns and labels:
Test in all cases: inhibition of tumour cell growth, NCI panel, 48 h
A498 = tested on: A498
A549 = tested on: A549
ACHN = tested on: ACHN
CCRF-CEM = tested on: CCRF-CEM
DLD-1 = tested on: DLD-1
EKVX = tested on: EKVX
HCC 2998 = tested on: HCC 2998
HCT-116 = tested on: HCT-116
HCT-15 = tested on: HCT-15
HOP-92 = tested on: HOP-92
HT-29 = tested on: HT-29
IGROV-1 = tested on: IGROV-1
KM-20L2 = tested on: KM-20L2
KM12 = tested on: KM12
LOX IMVI = tested on: LOX IMVI
LXFL 529 = tested on: LXFL 529
M14 = tested on: M14
M19-MEL = tested on: M19-MEL
Malme-3M = tested on: Malme-3M
NCI-H226 = tested on: NCI-H226
NCI-H23 = tested on: NCI-H23
NCI-H460 = tested on: NCI-H460
NCI-H522 = tested on: NCI-H522
OVCAR-4 = tested on: OVCAR-4
OVCAR-5 = tested on: OVCAR-5
RPMI-8226 = tested on: RPMI-8226
RXF 393 = tested on: RXF 393
SF-539 = tested on: SF-539
SK-MEL-28 = tested on: SK-MEL-28
SK-MEL-2 = tested on: SK-MEL-2
SK-MEL-5 = tested on: SK-MEL-5
SNB-19 = tested on: SNB-19
SNB-78 = tested on: SNB-78
SR = tested on: SR
SW-620 = tested on: SW-620
TK-10 = tested on: TK-10
U-251 = tested on: U-251
UACC-257 = tested on: UACC-257
UO-31 = tested on: UO-31
XF498 = tested on: XF498
786-0 = tested on: 786-0
CAKI-1 = tested on: CAKI-1
COLO 205 = tested on: COLO 205
DMS-273 = tested on: DMS-273
HL-60 = tested on: HL-60
HOP-18 = tested on: HOP-18
HOP-62 = tested on: HOP-62
K562 = tested on: K562
MOLT-4 = tested on: MOLT-4
OVCAR-3 = tested on: OVCAR-3
OVCAR-8 = tested on: OVCAR-8
SF-268 = tested on: SF-268
SF-295 = tested on: SF-295
SK-OV-3 = tested on: SK-OV-3
SN12C = tested on: SN12C
SNB-75 = tested on: SNB-75
UACC-62 = tested on: UACC-62

For Cc1ccc(SSCC(O)C(O)CSSc2ccc(C)cc2)cc1 (stereo not given), the GI50 (A498) was 4.51 µM (inactive), the GI50 (A549) was 10.6 µM (inactive) and 10.9 µM (inactive) and the GI50 (ACHN) was 11.2 µM (inactive) and 15.7 µM (inactive). The GI50 (CCRF-CEM) was 1.14 µM (inactive), the GI50 (DLD-1) was 15 µM (inactive) and 14.1 µM (inactive) and the GI50 (EKVX) was 14.1 µM (inactive) and 18.1 µM (inactive). For the same compound, the GI50 (HCC 2998) was 15 µM (inactive) and 14.2 µM (inactive), the GI50 (HCT-116) was 12.1 µM (inactive) and 7.28 µM (inactive) and the GI50 (HCT-15) was 14.1 µM and 13.1 µM. The GI50 (HOP-92) was 17 µM (inactive) and 11.9 µM (inactive), the GI50 (HT-29) was 13.3 µM (inactive) and 18.5 µM (inactive) and the GI50 (IGROV-1) was 2.99 µM (inactive) and 2.14 µM (inactive). For the same compound, the GI50 (KM-20L2) was 13.1 µM (inactive) and 11.1 µM (inactive), the GI50 (KM12) was 9.48 µM (inactive) and 11.1 µM (inactive) and the GI50 (LOX IMVI) was 1.3 µM (inactive) and 1.89 µM (inactive). For the same compound, the GI50 (LXFL 529) was 10.6 µM (inactive) and 6.01 µM (inactive), the GI50 (M14) was 7.29 µM (inactive) and 5.58 µM (inactive) and the GI50 (M19-MEL) was 16.5 µM (inactive) and 11.6 µM (inactive). For the same compound, the GI50 (Malme-3M) was 19 µM (inactive) and 15.3 µM (inactive), the GI50 (NCI-H226) was 15.2 µM (inactive) and 15.1 µM (inactive) and the GI50 (NCI-H23) was 5.94 µM (inactive) and 11.3 µM (inactive). For the same compound, the GI50 (NCI-H460) was 17.5 µM (inactive) and 18.1 µM (inactive), the GI50 (NCI-H522) was 1.82 µM (inactive) and 1.76 µM (inactive) and the GI50 (OVCAR-4) was 13.4 µM (inactive) and 14.3 µM (inactive). The GI50 (OVCAR-5) was 16.6 µM (inactive) and 22.8 µM (inactive), the GI50 (RPMI-8226) was 3.66 µM (inactive) and 3.26 µM (inactive) and the GI50 (RXF 393) was 3.92 µM (inactive) and 4.15 µM (inactive). The GI50 (SF-539) was 3.42 µM (inactive) and 3.02 µM (inactive), the GI50 (SK-MEL-28) was 13.9 µM (inactive) and 14.9 µM (inactive) and the GI50 (SK-MEL-2) was 8.18 µM (inactive). For the same compound, the GI50 (SK-MEL-5) was 7.31 µM (inactive) and 12.6 µM (inactive), the GI50 (SNB-19) was 15.1 µM (inactive) and 14.6 µM (inactive) and the GI50 (SNB-78) was 13.7 µM (inactive). For the same compound, the GI50 (SR) was 3.55 µM (inactive) and 3.29 µM (inactive), the GI50 (SW-620) was 7.55 µM (inactive) and 14.2 µM (inactive) and the GI50 (TK-10) was 15.6 µM (inactive) and 13.2 µM (inactive). For the same compound, the GI50 (U-251) was 2.03 µM (inactive) and 2.23 µM (inactive), the GI50 (UACC-257) was 15.6 µM (inactive) and 14.4 µM (inactive) and the GI50 (UO-31) was 4.08 µM (inactive) and 4.26 µM (inactive). The GI50 (XF498) was 17.2 µM (inactive) and 13.7 µM (inactive).
In the case of CCc1cccc(CC)c1NC(=O)C1=C(C)NC(C)=C(C(=O)Nc2c(CC)cccc2CC)C1c1ccc2c(c1)OCO2, the GI50 (786-0) is reported as 16.4 µM (inactive), the GI50 (A498) is reported as 21.7 µM (inactive) and the GI50 (A549) is reported as 25.9 µM (inactive). For the same compound, the GI50 (ACHN) was 19.4 µM (inactive), the GI50 (CAKI-1) was 20.1 µM (inactive) and the GI50 (CCRF-CEM) was 5.93 µM (inactive). The GI50 (COLO 205) was 13.4 µM (inactive), the GI50 (DLD-1) was 24.3 µM (inactive) and the GI50 (DMS-273) was 13.3 µM (inactive). The GI50 (EKVX) was 19.9 µM (inactive), the GI50 (HCC 2998) was 21.6 µM (inactive) and the GI50 (HCT-116) was 18.2 µM (inactive). The GI50 (HCT-15) was 12.4 µM, the GI50 (HL-60) was 8 µM (inactive) and the GI50 (HOP-18) was 20.6 µM (inactive). For the same compound, the GI50 (HOP-62) was 19.2 µM (inactive), the GI50 (HOP-92) was 14 µM (inactive) and the GI50 (HT-29) was 15.9 µM (inactive). The GI50 (IGROV-1) was 18.8 µM (inactive), the GI50 (K562) was 15.6 µM (inactive) and the GI50 (KM-20L2) was 16.9 µM (inactive). For the same compound, the GI50 (KM12) was 20.4 µM (inactive), the GI50 (LOX IMVI) was 12.7 µM (inactive) and the GI50 (LXFL 529) was 15.9 µM (inactive). For the same compound, the GI50 (M14) was 16.8 µM (inactive), the GI50 (M19-MEL) was 16.7 µM (inactive) and the GI50 (MOLT-4) was 56.8 µM (inactive). The GI50 (Malme-3M) was 14.9 µM (inactive), the GI50 (NCI-H226) was 15 µM (inactive) and the GI50 (NCI-H23) was 17.6 µM (inactive). For the same compound, the GI50 (NCI-H460) was 14 µM (inactive), the GI50 (NCI-H522) was 13.8 µM (inactive) and the GI50 (OVCAR-3) was 13.9 µM (inactive). For the same compound, the GI50 (OVCAR-4) was 16.6 µM (inactive), the GI50 (OVCAR-5) was 17.7 µM (inactive) and the GI50 (OVCAR-8) was 18.5 µM (inactive). The GI50 (RPMI-8226) was 22.5 µM (inactive), the GI50 (SF-268) was 18.1 µM (inactive) and the GI50 (SF-295) was 13.9 µM (inactive). The GI50 (SF-539) was 22.5 µM (inactive), the GI50 (SK-MEL-28) was 20 µM (inactive) and the GI50 (SK-MEL-2) was 18.6 µM (inactive). For the same compound, the GI50 (SK-MEL-5) was 18.1 µM (inactive), the GI50 (SK-OV-3) was 25.8 µM (inactive) and the GI50 (SN12C) was 15.3 µM (inactive). For the same compound, the GI50 (SNB-19) was 17.4 µM (inactive), the GI50 (SNB-75) was 18.8 µM (inactive) and the GI50 (SNB-78) was 22.6 µM (inactive). For the same compound, the GI50 (SR) was 3.66 µM (inactive), the GI50 (SW-620) was 17 µM (inactive) and the GI50 (TK-10) was 33.6 µM (inactive). The GI50 (U-251) was 14 µM (inactive), the GI50 (UACC-257) was 17.9 µM (inactive) and the GI50 (UACC-62) was 12.6 µM (inactive). The GI50 (UO-31) was 17.1 µM (inactive).
